Measured values from PubChem BioAssay (NCI).
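Five compound concentrations were applied to cells in 96-well plates for 48 hours; endpoints were derived by simple linear interpolation of the resulting dose-response curve. GI50 is the concentration that inhibits growth by half. TGI marks complete inhibition of growth.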

What was measured:
Experiment in all cases: DTP human tumour cell line panel, 48 h
SK-MEL-2 melanoma = tested on: SK-MEL-2 melanoma
K-562 leukemia = tested on: K-562 leukemia
ACHN renal = tested on: ACHN renal
KM12 colon = tested on: KM12 colon
COLO 205 colon = tested on: COLO 205 colon
RPMI-8226 leukemia = tested on: RPMI-8226 leukemia
OVCAR-5 ovarian = tested on: OVCAR-5 ovarian
NCI-H226 lung = tested on: NCI-H226 lung
OVCAR-8 ovarian = tested on: OVCAR-8 ovarian
MOLT-4 leukemia = tested on: MOLT-4 leukemia
MDA-MB-231 breast = tested on: MDA-MB-231 breast
UACC-257 melanoma = tested on: UACC-257 melanoma
TK-10 renal = tested on: TK-10 renal
HS 578T breast = tested on: HS 578T breast
SN12C renal = tested on: SN12C renal
786-0 renal = tested on: 786-0 renal
MDA-MB-435 = tested on: MDA-MB-435
HOP-62 NSCLC = tested on: HOP-62 NSCLC
NCI-H460 lung = tested on: NCI-H460 lung
HOP-92 NSCLC = tested on: HOP-92 NSCLC
HCT-116 colon = tested on: HCT-116 colon
CAKI-1 renal = tested on: CAKI-1 renal
OVCAR-3 ovarian = tested on: OVCAR-3 ovarian
MALME-3M melanoma = tested on: MALME-3M melanoma
M14 melanoma = tested on: M14 melanoma
SF-295 CNS = tested on: SF-295 CNS
SNB-75 CNS = tested on: SNB-75 CNS
SW-620 colon = tested on: SW-620 colon
HCT-15 colon = tested on: HCT-15 colon
A498 renal = tested on: A498 renal
SK-OV-3 ovarian = tested on: SK-OV-3 ovarian
NCI/ADR-RES ovarian = tested on: NCI/ADR-RES ovarian
HCC-2998 colon = tested on: HCC-2998 colon
CCRF-CEM leukemia = tested on: CCRF-CEM leukemia
LOX IMVI melanoma = tested on: LOX IMVI melanoma
SF-268 CNS = tested on: SF-268 CNS
T-47D breast = tested on: T-47D breast
UACC-62 melanoma = tested on: UACC-62 melanoma
SK-MEL-28 melanoma = tested on: SK-MEL-28 melanoma
SF-539 CNS = tested on: SF-539 CNS
U251 CNS = tested on: U251 CNS
SK-MEL-5 melanoma = tested on: SK-MEL-5 melanoma
OVCAR-4 ovarian = tested on: OVCAR-4 ovarian
RXF 393 renal = tested on: RXF 393 renal
HL-60(TB) leukemia = tested on: HL-60(TB) leukemia
NCI-H522 lung = tested on: NCI-H522 lung
MDA-MB-468 breast = tested on: MDA-MB-468 breast
NCI-H23 lung = tested on: NCI-H23 lung
IGROV1 ovarian = tested on: IGROV1 ovarian
HT29 colon = tested on: HT29 colon
SNB-19 CNS = tested on: SNB-19 CNS
EKVX NSCLC = tested on: EKVX NSCLC
MCF7 breast = tested on: MCF7 breast
SR leukemia = tested on: SR leukemia
PC-3 prostate = tested on: PC-3 prostate
UO-31 renal = tested on: UO-31 renal
DU-145 prostate = tested on: DU-145 prostate
A549 NSCLC = tested on: A549 NSCLC

COc1ccc2[nH]cc(-c3cc(N)n4nc(-c5cn(C)c6ccccc56)cc4n3)c2c1
GI50 (SK-MEL-2 melanoma): 1.67 µM
TGI (SK-MEL-2 melanoma): 3.13 µM
GI50 (K-562 leukemia): 0.614 µM
TGI (K-562 leukemia): 6.66 µM
GI50 (ACHN renal): 1.87 µM
TGI (ACHN renal): 3.43 µM
GI50 (KM12 colon): 2.03 µM
TGI (KM12 colon): 4.22 µM
GI50 (COLO 205 colon): 1.79 µM
TGI (COLO 205 colon): 3.41 µM
GI50 (RPMI-8226 leukemia): 1.94 µM
TGI (RPMI-8226 leukemia): 5 µM
GI50 (OVCAR-5 ovarian): 1.73 µM
TGI (OVCAR-5 ovarian): 3.27 µM
GI50 (NCI-H226 lung): 1.87 µM
TGI (NCI-H226 lung): 4.74 µM
GI50 (OVCAR-8 ovarian): 1.75 µM
TGI (OVCAR-8 ovarian): 3.27 µM
GI50 (MOLT-4 leukemia): 1.59 µM
TGI (MOLT-4 leukemia): 4.38 µM
GI50 (MDA-MB-231 breast): 1.51 µM
TGI (MDA-MB-231 breast): 2.84 µM
GI50 (UACC-257 melanoma): 1.68 µM
TGI (UACC-257 melanoma): 3.1 µM
GI50 (TK-10 renal): 1.89 µM
TGI (TK-10 renal): 3.37 µM
GI50 (HS 578T breast): 2.05 µM
TGI (HS 578T breast): 4.83 µM
GI50 (SN12C renal): 1.53 µM
TGI (SN12C renal): 2.86 µM
GI50 (786-0 renal): 1.59 µM
TGI (786-0 renal): 3.12 µM
GI50 (MDA-MB-435): 1.77 µM
TGI (MDA-MB-435): 3.23 µM
GI50 (HOP-62 NSCLC): 1.89 µM
TGI (HOP-62 NSCLC): 3.76 µM
GI50 (NCI-H460 lung): 1.9 µM
TGI (NCI-H460 lung): 3.62 µM
GI50 (HOP-92 NSCLC): 1.68 µM
TGI (HOP-92 NSCLC): 3.24 µM
GI50 (HCT-116 colon): 1.54 µM
TGI (HCT-116 colon): 3.69 µM
GI50 (CAKI-1 renal): 1.73 µM
TGI (CAKI-1 renal): 3.12 µM
GI50 (OVCAR-3 ovarian): 1.8 µM
TGI (OVCAR-3 ovarian): 3.34 µM
GI50 (MALME-3M melanoma): 1.74 µM
TGI (MALME-3M melanoma): 3.14 µM
GI50 (M14 melanoma): 1.79 µM
TGI (M14 melanoma): 3.93 µM
GI50 (SF-295 CNS): 1.78 µM
TGI (SF-295 CNS): 3.34 µM
GI50 (SNB-75 CNS): 1.4 µM
TGI (SNB-75 CNS): 2.81 µM
GI50 (SW-620 colon): 1.81 µM
TGI (SW-620 colon): 3.47 µM
GI50 (HCT-15 colon): 1.23 µM
TGI (HCT-15 colon): 2.52 µM
GI50 (A498 renal): 1.73 µM
TGI (A498 renal): 3.23 µM
GI50 (SK-OV-3 ovarian): 1.81 µM
TGI (SK-OV-3 ovarian): 3.36 µM
GI50 (NCI/ADR-RES ovarian): 1.89 µM
TGI (NCI/ADR-RES ovarian): 3.82 µM
GI50 (HCC-2998 colon): 1.94 µM
TGI (HCC-2998 colon): 3.38 µM
GI50 (CCRF-CEM leukemia): 1.86 µM
TGI (CCRF-CEM leukemia): 6.44 µM
GI50 (LOX IMVI melanoma): 1.76 µM
TGI (LOX IMVI melanoma): 3.28 µM
GI50 (SF-268 CNS): 1.94 µM
TGI (SF-268 CNS): 4.05 µM
GI50 (T-47D breast): 2.01 µM
TGI (T-47D breast): 4.43 µM
GI50 (UACC-62 melanoma): 1.62 µM
TGI (UACC-62 melanoma): 2.99 µM
GI50 (SK-MEL-28 melanoma): 1.78 µM
TGI (SK-MEL-28 melanoma): 3.23 µM
GI50 (SF-539 CNS): 1.61 µM
TGI (SF-539 CNS): 3.01 µM
GI50 (U251 CNS): 1.69 µM
TGI (U251 CNS): 3.15 µM
GI50 (SK-MEL-5 melanoma): 1.76 µM
TGI (SK-MEL-5 melanoma): 3.14 µM
GI50 (OVCAR-4 ovarian): 1.7 µM
TGI (OVCAR-4 ovarian): 3.19 µM
GI50 (RXF 393 renal): 1.74 µM
TGI (RXF 393 renal): 3.39 µM
GI50 (HL-60(TB) leukemia): 1.39 µM
TGI (HL-60(TB) leukemia): 3.58 µM
GI50 (NCI-H522 lung): 1.52 µM
TGI (NCI-H522 lung): 2.99 µM
GI50 (MDA-MB-468 breast): 1.57 µM
TGI (MDA-MB-468 breast): 3.06 µM
GI50 (NCI-H23 lung): 1.97 µM
TGI (NCI-H23 lung): 3.95 µM
GI50 (IGROV1 ovarian): 1.62 µM
TGI (IGROV1 ovarian): 3.05 µM
GI50 (HT29 colon): 1.8 µM
TGI (HT29 colon): 3.22 µM
GI50 (SNB-19 CNS): 1.66 µM
TGI (SNB-19 CNS): 3.11 µM
GI50 (EKVX NSCLC): 1.8 µM
TGI (EKVX NSCLC): 3.89 µM
GI50 (MCF7 breast): 1.46 µM
TGI (MCF7 breast): 3.25 µM
GI50 (SR leukemia): 0.343 µM
TGI (SR leukemia): 1.73 µM
GI50 (PC-3 prostate): 1.67 µM
TGI (PC-3 prostate): 3.52 µM
GI50 (UO-31 renal): 1.46 µM
TGI (UO-31 renal): 2.78 µM
GI50 (DU-145 prostate): 1.82 µM
TGI (DU-145 prostate): 3.52 µM
GI50 (A549 NSCLC): 1.54 µM
TGI (A549 NSCLC): 2.9 µM
